What was measured:
[1] = biological target: T1, D-amino-acid oxidase (Homo sapiens, UniProt P14920); experiment: Inhibition of recombinant full length human DAO preincubated with compound for 20 mins measured after 4 hrs by Amplex red and horseradish peroxidase based fluorescence assay
[2] = biological target: D-amino-acid oxidase (Mus musculus, UniProt P18894); experiment: Inhibition of full length mouse DAO transfected with CHO-K1 cells incubated for 30 mins by Amplex red and horseradish peroxidase based fluorescence assay; format: cell-based
[3] = biological target: T1, D-amino-acid oxidase; experiment: Inhibition of full length human DAO transfected in CHO-K1 cells incubated for 30 mins by Amplex red and horseradish peroxidase based fluorescence assay; format: cell-based
[4] = Apparent permeability across apical to basolateral membrane in MDCK-MDR1 cells by LC-MS/MS analysis; details: dog
[5] = Efflux ratio of apparent permeability across basolateral to apical side over apical to basolateral side in MDCK-MDR1 cells; details: dog
[6] = Unbound drug concentration in C57Bl/6 mouse brain at 2 mg/kg, po or 0.5 mg/kg,iv by LC-MS-MS analysis; format: ADME, organism-based; details: mouse, in vivo, po, 2 mg/kg, BLD = below limit of detection
[7] = Brain to plasma permeability coefficient, Kp in C57Bl/6 mouse 2 mg/kg, po or 0.5 mg/kg,iv by LC-MS-MS analysis; format: ADME, organism-based; details: mouse, brain, po, 2 mg/kg, BLD = below limit of detection
[8] = Unbound drug concentration in C57Bl/6 mouse plasma at 2 mg/kg, po or 0.5 mg/kg,iv by LC-MS-MS analysis; format: ADME, organism-based; details: mouse, in vivo, po, 2 mg/kg, BLD = below limit of detection
[9] = Dose normalized AUC in C57/BL6 mouse at 2 mg/kg, po by LC-MS-MS analysis; format: ADME, organism-based; details: in vivo
[10] = Unbound brain-to-plasma concentration ratio in C57Bl/6 mouse at 2 mg/kg, po or 0.5 mg/kg,iv by LC-MS-MS analysis; format: ADME, organism-based; details: mouse, brain, po, 2 mg/kg, BLD = below limit of detection
[11] = Oral bioavailability in C57/BL6 mouse at 2 mg/kg by LC-MS-MS analysis; format: ADME, organism-based; details: in vivo
[12] = Volume of distribution at steady state in C57/BL6 mouse at 2 mg/kg, po or 0.5 mg/kg,iv by LC-MS-MS analysis; format: ADME, organism-based; details: in vivo

Sequence of D-amino-acid oxidase (Mus musculus, UniProt P18894) (P18894 whole entry): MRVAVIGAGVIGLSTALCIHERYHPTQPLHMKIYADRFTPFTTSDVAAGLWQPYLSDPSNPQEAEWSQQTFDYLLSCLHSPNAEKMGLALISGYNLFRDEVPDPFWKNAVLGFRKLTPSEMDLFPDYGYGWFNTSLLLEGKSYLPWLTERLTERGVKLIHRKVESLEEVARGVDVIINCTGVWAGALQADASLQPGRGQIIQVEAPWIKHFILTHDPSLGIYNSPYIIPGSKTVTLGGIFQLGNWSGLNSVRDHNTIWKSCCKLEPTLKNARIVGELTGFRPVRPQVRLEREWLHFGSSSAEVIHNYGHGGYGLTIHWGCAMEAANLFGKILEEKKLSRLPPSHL
T1 sequence (P14920 whole entry): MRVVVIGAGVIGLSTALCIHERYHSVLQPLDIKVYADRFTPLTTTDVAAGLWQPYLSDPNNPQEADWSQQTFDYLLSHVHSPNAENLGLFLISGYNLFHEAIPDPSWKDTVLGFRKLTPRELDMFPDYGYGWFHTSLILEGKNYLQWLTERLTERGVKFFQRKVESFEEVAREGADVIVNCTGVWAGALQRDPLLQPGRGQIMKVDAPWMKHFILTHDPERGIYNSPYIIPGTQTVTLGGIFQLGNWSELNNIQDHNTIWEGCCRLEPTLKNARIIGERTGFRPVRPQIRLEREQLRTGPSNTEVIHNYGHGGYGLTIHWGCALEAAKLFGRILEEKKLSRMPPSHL

| SMILES | IC50 [1] | EC50 [2] | EC50 [3] | other results |
| --- | --- | --- | --- | --- |
| C[C@@]1(c2c[nH]c(=O)c(=O)[nH]2)COc2cc(S(C)(=O)=O)ccc2S1 | 51 nM | 1500 nM | 390 nM | – |
| N#Cc1ccc2c(c1)OC[C@@H](c1c[nH]c(=O)c(=O)[nH]1)S2 | 20 nM | 780 nM | 630 nM | Papp A→B [4]: 3.1 ×10⁻⁶ cm/s; efflux ratio [5]: 3.1 |
| O=c1[nH]cc(CSc2ccc(S(F)(F)(F)(F)F)cc2)[nH]c1=O | 80 nM | 790 nM | 710 nM | – |
| N#Cc1cccc(CSc2c[nH]c(=O)c(=O)[nH]2)c1 | 440 nM | – | 3800 nM | – |
| O=c1[nH]cc(CCc2ccccc2)[nH]c1=O | 340 nM | – | – | Papp A→B [4]: 4 ×10⁻⁶ cm/s; efflux ratio [5]: 0.4 |
| COc1ccc(CCc2c[nH]c(=O)c(=O)[nH]2)cc1 | 320 nM | – | – | – |
| O=c1[nH]cc(CCc2ccc(Cl)cc2)[nH]c1=O | 320 nM | – | – | – |
| N#Cc1[nH]c(=O)c(=O)[nH]c1CCc1ccc(C(F)(F)F)cc1 | 250 nM | 340 nM | 540 nM | – |
| O=c1[nH]cc(SCc2ccc(C(F)(F)F)nc2)[nH]c1=O | 250 nM | 590 nM | 1100 nM | Papp A→B [4]: 2.4 ×10⁻⁶ cm/s; efflux ratio [5]: 0.4 |
| O=c1[nH]c(=O)n(O)cc1CCc1ccc(Cl)cc1 | – | – | – | Fu [6]: Bld; Kp [7]: Bld; Fu [8]: Bld; AUC/dose [9]: 13.6 ng·h/mL; Papp A→B [4]: 24 ×10⁻⁶ cm/s; K(p,uu,brain) [10]: Bld; bioavailability [11]: 9%; Vdss [12]: 1.9 L/kg |
| O=c1[nH]cc(SCc2ccc(C(F)(F)F)cc2)[nH]c1=O | – | 240 nM | – | – |
| O=c1[nH]cc(C2COc3ccccc3S2)[nH]c1=O (racemic) | 406 nM | 720 nM | 1760 nM | – |
| Cc1[nH]c(=O)c(=O)[nH]c1CCc1ccc(C(F)(F)F)cc1 | 3900 nM | – | – | Papp A→B [4]: 4.8 ×10⁻⁶ cm/s; efflux ratio [5]: 2.4 |
| N#Cc1ccc(CCc2c[nH]c(=O)c(=O)[nH]2)cc1F | 180 nM | – | 1900 nM | Papp A→B [4]: 3.3 ×10⁻⁶ cm/s; efflux ratio [5]: 0.5 |
| O=c1[nH]cc(CCc2cccc(Cl)c2)[nH]c1=O | 190 nM | – | 3500 nM | Papp A→B [4]: 6.8 ×10⁻⁶ cm/s; efflux ratio [5]: 0.9 |
| N#Cc1ccc(SCc2c[nH]c(=O)c(=O)[nH]2)cc1F | 46 nM | 970 nM | 440 nM | – |
| C[C@@]1(c2c[nH]c(=O)c(=O)[nH]2)COc2cc(Cl)ccc2S1 | – | 100 nM | – | – |
| C[C@@]1(c2c[nH]c(=O)c(=O)[nH]2)COc2cc(C#N)ccc2S1 | 20 nM | 120 nM | 240 nM | – |
| O=c1[nH]cc(SCc2ccc(F)c(F)c2)[nH]c1=O | 300 nM | – | 810 nM | – |
| O=c1[nH]cc(SCc2ccc(Cl)cc2)[nH]c1=O | 150 nM | 510 nM | 400 nM | – |
| O=c1[nH]cc(CCc2ccc(-c3cc(O)n[nH]3)c(F)c2)[nH]c1=O | 320 nM | 1800 nM | 2900 nM | Papp A→B [4]: 21 ×10⁻⁶ cm/s; efflux ratio [5]: 0.1 |
| O=c1[nH]cc(CSc2ccc(Cl)cc2)[nH]c1=O | 130 nM | 390 nM | 680 nM | – |
| O=c1[nH]cc(SCc2ccc(C(F)F)cc2)[nH]c1=O | 70 nM | 590 nM | 450 nM | – |
| C[C@@]1(c2c[nH]c(=O)c(=O)[nH]2)COc2cc(C(F)(F)F)ccc2S1 | – | 260 nM | – | – |

| SMILES | IC50 [1] | EC50 [2] | EC50 [3] | other results |
| --- | --- | --- | --- | --- |
| O=c1[nH]cc(CSc2cnc3cc(Cl)ccc3c2)[nH]c1=O | 87 nM | 1400 nM | 1100 nM | – |
| N#Cc1ccc(CCc2c[nH]c(=O)c(=O)[nH]2)cc1 | 5800 nM | 1500 nM | 1800 nM | Papp A→B [4]: 3 ×10⁻⁶ cm/s; efflux ratio [5]: 0.6 |
| O=c1[nH]c(Cl)c(CCc2ccc(C(F)(F)F)cc2)[nH]c1=O | 1500 nM | – | 500 nM | – |
| O=c1[nH]cc(C2COc3cc(C(F)(F)F)ccc3S2)[nH]c1=O (stereo not drawn) | 25 nM | 430 nM | 290 nM | – |
| O=c1[nH]cc(CCc2cc(Cl)cc(Cl)c2)[nH]c1=O | 2500 nM | – | – | – |
| Cc1n[nH]c2cc(CCc3c[nH]c(=O)c(=O)[nH]3)ccc12 | 640 nM | 4300 nM | – | – |
| CS(=O)(=O)c1ccc(SCc2c[nH]c(=O)c(=O)[nH]2)cc1 | – | 2300 nM | – | – |
| N#Cc1ccc(SCc2c[nH]c(=O)c(=O)[nH]2)cc1Cl | – | 560 nM | – | – |
| O=c1[nH]cc(SCc2ccc(S(F)(F)(F)(F)F)cc2)[nH]c1=O | – | 500 nM | – | – |
| O=c1[nH]cc([C@@H]2COc3cc(Cl)ccc3S2)[nH]c1=O | 21 nM | 220 nM | 140 nM | – |
| O=c1[nH]cc([C@@H]2COc3cc(F)ccc3S2)[nH]c1=O | 94 nM | 540 nM | 560 nM | – |
| O=c1[nH]cc(CCc2ccccc2Cl)[nH]c1=O | 6200 nM | – | – | – |
| O=c1[nH]cc(CCc2ccc(OC(F)F)nc2)[nH]c1=O | 670 nM | – | 8200 nM | – |
| O=c1[nH]cc([C@@H]2COc3cc(C(F)F)ccc3S2)[nH]c1=O | – | 290 nM | – | – |
| O=c1[nH]cc(CCc2ccc3ncccc3c2)[nH]c1=O | 580 nM | – | 8400 nM | – |
| CS(=O)(=O)c1ccc(CSc2c[nH]c(=O)c(=O)[nH]2)cc1 | 90 nM | 540 nM | 440 nM | – |
| O=c1[nH]c(=O)n(O)cc1CCc1ccccc1 | – | – | – | Papp A→B [4]: 15 ×10⁻⁶ cm/s |
| CS(=O)(=O)c1ccc2c(c1)OC[C@@H](c1c[nH]c(=O)c(=O)[nH]1)S2 | 25 nM | 1200 nM | 270 nM | – |
| O=c1[nH]nc(Cc2ccc(Cl)cc2)cc1O | – | 4.2 nM | – | – |
| O=c1[nH]cc(Cc2ccc(Cl)cc2)[nH]c1=O | 3300 nM | – | – | – |
| N#Cc1ccc(CSc2c[nH]c(=O)c(=O)[nH]2)cc1F | – | 680 nM | – | – |
| CC1(c2c[nH]c(=O)c(=O)[nH]2)COc2ccccc2S1 (racemic) | – | 250 nM | – | – |
| N#Cc1ccc(CSc2c[nH]c(=O)c(=O)[nH]2)cc1 | 43 nM | 310 nM | 250 nM | – |

Reference: ChEMBL document CHEMBL5154896, “Discovery of a Novel Class of d-Amino Acid Oxidase Inhibitors Using the Schrödinger Computational Platform” (J Med Chem, 2022)
